Test results: the supplement of paper PMC13207355

Columns and labels:
Conditions in all cases: exposure time: 72 h
[1] = test system: E13 (patient-derived glioblastoma stem cells of classical subtype); assay: phenotypic distance (Euclidean, principal components) from DMSO controls (arbitrary units); higher = stronger morphological change
[2] = test system: E28 (patient-derived glioblastoma stem cells of classical subtype); assay: as above
[3] = test system: FT3469 (normal neural stem cell line); assay: as above
[4] = test system: E57 (patient-derived glioblastoma stem cells of mesenchymal subtype); assay: as above
[5] = test system: E31 (patient-derived glioblastoma stem cells of proneural subtype); assay: as above
[6] = test system: E21 (patient-derived glioblastoma stem cells of mesenchymal subtype); assay: as above
[7] = test system: E34 (patient-derived glioblastoma stem cells of proneural subtype); assay: as above
[8] = test system: E13; assay: surviving fraction (nuclei count normalised to DMSO); higher = more cells surviving (less toxic)
[9] = test system: E28; assay: as above
[10] = test system: FT3469; assay: as above
[11] = test system: E57; assay: as above
[12] = test system: E31; assay: as above
[13] = test system: E21; assay: as above
[14] = test system: E34; assay: as above
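For phenotypic distance (Euclidean, principal components) from DMSO controls in this document: cell Painting imaging in 384-well plates, CellProfiler features reduced to at least 20 principal components, Euclidean distance versus same-plate DMSO vehicle wells (0.1% v/v), median over six images per well.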
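For surviving fraction (nuclei count normalised to DMSO) in this document: nuclei counted by high-content imaging of Hoechst-stained cells in laminin-coated 384-well plates, relative to 0.1% DMSO vehicle wells, with staurosporine as cell-death control.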

COC(=O)C[C@](O)(CCCC(C)(C)O)C(=O)O[C@@H]1C(OC)=C[C@]23CCCN2CCc2cc4c(cc2[C@H]13)OCO4 [Homoharringtonine]
Conditions	phenotypic distance	surviving fraction
[1], 4.1 nM	1.66	–
[1], 12.3 nM	2.13	–
[1], 37 nM	4.35	–
[1], 111.1 nM	3.97	–
[1], 333.3 nM	5.67	–
[1], 1000 nM	7.51	–
[1], 3000 nM	8.63	–
[2], 4.1 nM	1.42	–
[2], 12.3 nM	1.38	–
[2], 37 nM	2.63	–
[2], 111.1 nM	1.37	–
[2], 333.3 nM	2.87	–
[2], 1000 nM	3.53	–
[2], 3000 nM	4.17	–
[3], 4.1 nM	1.22	–
[3], 12.3 nM	1.49	–
[3], 37 nM	1.36	–
[3], 111.1 nM	2	–
[3], 333.3 nM	1.75	–
[3], 1000 nM	2.95	–
[3], 3000 nM	3.51	–
[4], 4.1 nM	1.28	–
[4], 12.3 nM	2.53	–
[4], 37 nM	4.58	–
[4], 111.1 nM	4.46	–
[4], 333.3 nM	6.69	–
[4], 1000 nM	8.52	–
[4], 3000 nM	8.81	–
[5], 4.1 nM	1.9	–
[5], 12.3 nM	2.41	–
[5], 37 nM	3.5	–
[5], 111.1 nM	4.14	–
[5], 333.3 nM	4.68	–
[5], 1000 nM	5.99	–
[5], 3000 nM	5.88	–
[6], 4.1 nM	1.39	–
[6], 12.3 nM	1.73	–
[6], 37 nM	4.36	–
[6], 111.1 nM	3.63	–
[6], 333.3 nM	4.11	–
[6], 1000 nM	5.37	–
[6], 3000 nM	8.36	–
[7], 4.1 nM	1.44	–
[7], 12.3 nM	1.62	–
[7], 37 nM	2.68	–
[7], 111.1 nM	3.86	–
[7], 333.3 nM	3.89	–
[7], 1000 nM	4.65	–
[7], 3000 nM	6.65	–
[8], 4.1 nM	–	0.73
[8], 12.3 nM	–	0.702
[8], 37 nM	–	0.367
[8], 111.1 nM	–	0.401
[8], 333.3 nM	–	0.316
[8], 1000 nM	–	0.239
[8], 3000 nM	–	0.0816
[9], 4.1 nM	–	0.694
[9], 12.3 nM	–	0.573
[9], 37 nM	–	0.334
[9], 111.1 nM	–	0.41
[9], 333.3 nM	–	0.336
[9], 1000 nM	–	0.343
[9], 3000 nM	–	0.282
[10], 4.1 nM	–	0.701
[10], 12.3 nM	–	0.669
[10], 37 nM	–	0.604
[10], 111.1 nM	–	0.589
[10], 333.3 nM	–	0.536
[10], 1000 nM	–	0.53
[10], 3000 nM	–	0.436
[11], 4.1 nM	–	0.931
[11], 12.3 nM	–	0.677
[11], 37 nM	–	0.207
[11], 111.1 nM	–	0.215
[11], 333.3 nM	–	0.102
[11], 1000 nM	–	0.0784
[11], 3000 nM	–	0.0251
[12], 4.1 nM	–	0.502
[12], 12.3 nM	–	0.372
[12], 37 nM	–	0.226
[12], 111.1 nM	–	0.218
[12], 333.3 nM	–	0.209
[12], 1000 nM	–	0.164
[12], 3000 nM	–	0.171
[13], 4.1 nM	–	0.726
[13], 12.3 nM	–	0.721
[13], 37 nM	–	0.289
[13], 111.1 nM	–	0.402
[13], 333.3 nM	–	0.186
[13], 1000 nM	–	0.179
[13], 3000 nM	–	0.0999
[14], 4.1 nM	–	0.844
[14], 12.3 nM	–	0.873
[14], 37 nM	–	0.505
[14], 111.1 nM	–	0.553
[14], 333.3 nM	–	0.434
[14], 1000 nM	–	0.412
[14], 3000 nM	–	0.337

CC[C@@]1(O)C(=O)OCc2c1cc1n(c2=O)Cc2cc3cc(O)ccc3nc2-1 [Hydroxy Camptothecine]
Conditions	phenotypic distance	surviving fraction
[1], 4.1 nM	5.76	–
[1], 12.3 nM	6.4	–
[1], 37 nM	5.69	–
[1], 111.1 nM	6.9	–
[1], 333.3 nM	6.25	–
[1], 1000 nM	6.56	–
[1], 3000 nM	6.55	–
[2], 4.1 nM	3	–
[2], 12.3 nM	2.79	–
[2], 37 nM	3.94	–
[2], 111.1 nM	2.28	–
[2], 333.3 nM	3.33	–
[2], 1000 nM	3.32	–
[2], 3000 nM	3.06	–
[3], 4.1 nM	1.58	–
[3], 12.3 nM	1.79	–
[3], 37 nM	2.15	–
[3], 111.1 nM	1.67	–
[3], 333.3 nM	2.41	–
[3], 1000 nM	3.08	–
[3], 3000 nM	3.19	–
[4], 4.1 nM	6.51	–
[4], 12.3 nM	6.72	–
[4], 37 nM	6.63	–
[4], 111.1 nM	5.99	–
[4], 333.3 nM	6.28	–
[4], 1000 nM	6.33	–
[4], 3000 nM	5.89	–
[5], 4.1 nM	3.54	–
[5], 12.3 nM	2.94	–
[5], 37 nM	3.69	–
[5], 111.1 nM	2.96	–
[5], 333.3 nM	3.02	–
[5], 1000 nM	4.3	–
[5], 3000 nM	4.23	–
[6], 4.1 nM	4.52	–
[6], 12.3 nM	4.56	–
[6], 37 nM	5.14	–
[6], 111.1 nM	4.89	–
[6], 333.3 nM	4.81	–
[6], 1000 nM	5.63	–
[6], 3000 nM	5.74	–
[7], 4.1 nM	3.37	–
[7], 12.3 nM	3.46	–
[7], 37 nM	1.84	–
[7], 111.1 nM	2.93	–
[7], 333.3 nM	2.95	–
[7], 1000 nM	3.66	–
[7], 3000 nM	3.13	–
[8], 4.1 nM	–	0.295
[8], 12.3 nM	–	0.298
[8], 37 nM	–	0.269
[8], 111.1 nM	–	0.241
[8], 333.3 nM	–	0.178
[8], 1000 nM	–	0.197
[8], 3000 nM	–	0.141
[9], 4.1 nM	–	0.341
[9], 12.3 nM	–	0.331
[9], 37 nM	–	0.313
[9], 111.1 nM	–	0.331
[9], 333.3 nM	–	0.268
[9], 1000 nM	–	0.219
[9], 3000 nM	–	0.151
[10], 4.1 nM	–	0.616
[10], 12.3 nM	–	0.73
[10], 37 nM	–	0.51
[10], 111.1 nM	–	0.563
[10], 333.3 nM	–	0.489
[10], 1000 nM	–	0.442
[10], 3000 nM	–	0.445
[11], 4.1 nM	–	0.14
[11], 12.3 nM	–	0.165
[11], 37 nM	–	0.148
[11], 111.1 nM	–	0.157
[11], 333.3 nM	–	0.144
[11], 1000 nM	–	0.136
[11], 3000 nM	–	0.13
[12], 4.1 nM	–	0.159
[12], 12.3 nM	–	0.166
[12], 37 nM	–	0.174
[12], 111.1 nM	–	0.231
[12], 333.3 nM	–	0.223
[12], 1000 nM	–	0.203
[12], 3000 nM	–	0.201
[13], 4.1 nM	–	0.133
[13], 12.3 nM	–	0.115
[13], 37 nM	–	0.12
[13], 111.1 nM	–	0.161
[13], 333.3 nM	–	0.135
[13], 1000 nM	–	0.106
[13], 3000 nM	–	0.119
[14], 4.1 nM	–	0.494
[14], 12.3 nM	–	0.492
[14], 37 nM	–	0.608
[14], 111.1 nM	–	0.446
[14], 333.3 nM	–	0.509
[14], 1000 nM	–	0.496
[14], 3000 nM	–	0.569
